# Where two headings read alike, the source gives them in different places. Peptide text beside a SMILES is read from it.
# Key:
# [1] = system: Escherichia coli K12 MG1655; type: cell-based
# Method: (§1) To further validate the approach, a number of antimicrobial peptides identified during the in silico validation were synthesized. Their antimicrobial activity against Escherichia coli and Staphylococcus aureus were measured in a growth inhibitory assay. Details on the synthesis and assay are given in the supplementary material (see S1 Text). The peptides were obtained using h CAMP, the same predictor used during the previous validation. […]
# (§2) Escherichia coli K12 MG1655 and Staphylococcus aureus 68 (HER1049) were obtained from the F´elix d’H´erelle Reference Center for Bacterial Viruses of Universit´e Laval (http://www.phage.ulaval.ca). Both strains were grown in Trypticase soy broth with agitation at 37◦C. The minimal inhibitory concentration assay was performed as described in [2] and broth microdilution protocol performed in 96-well plates.
# (§3) The bacterial strains were grown overnight at 37◦C with aeration and diluted to a ﬁnal concentration of 5× 10^5 cfu/ml in the assay. The peptides were diluted in sterile water and were tested at the following concentrations: 0, 1, 2, 4, 8, 16 and 32µg/ml. The optical density (600nm) was followed every 30 minutes for 24 hours with a Synergy 2 plate reader (BioTek Instruments, Inc.). […]
# (§4) 2.Wiegand I, Hilpert K, Hancock RE (2008) Agar and broth dilution methods to determine the minimal inhibitory concentration (mic) of antimicrobial substances. Nature protocols 3: 163–175.
# [2] = system: Staphylococcus aureus 68 (HER1049); type: cell-based
# Method: as §1, §2, §3, §4
# [3] = stated in words as the cause of the weak activity
# Source text: We used the proposed approach with the predictor h CAMP to generate a list of K = 1,000 peptide candidates with the highest predicted activity. From this list, we greedily selected three peptides such that they all differed by at least 4 amino acids from each others. This was done to maximize the chemical diversity among them. We then tested these peptides (Peptides #2, #3, #4) in a growth inhibitory assay. […] In a second series, we ensured that a filter for water solubility was employed.
# [4] = system: 24 bacteria such as Escherichia coli, Bacteroïdes fragilis, and Staphylococcus aureus; settings: average potency over 24 bacteria; CAMPs training set value; cited from earlier work
# Source text: We observe a smooth power law with only a few peptides having outstanding biological activity, as expected.
# [5] = system: bradykinin potentiation; settings: BPPs training set value; cited from earlier work
# Source text: On the BPPs dataset, the proposed approach predicted that the pentapeptide IEWAK should have an activity of 2.195, slightly less than the best peptide of the training set (VEWAK, 2.73, predicted as 2.192). However, the predicted activity of IEWAK is much better than the average peptide activity of the dataset, which is 0.71. One may ask why IEWAK has a lower predicted biological activity than VEWAK, which was part of the training data. It is common for machine learning algorithms to sacrifice accuracy on the training data to prevent overfitting. Despite this small discrepancy, the model is ver ...
# [6] = E. coli K12 MG1655, broth microdilution in 96-well plates, 5×10^5 cfu/ml, peptides in sterile water tested at 0, 1, 2, 4, 8, 16 and 32 µg/ml, OD 600 nm every 30 minutes for 24 hours, 37 °C
# [7] = S. aureus 68 (HER1049), broth microdilution in 96-well plates, 5×10^5 cfu/ml, peptides in sterile water tested at 0, 1, 2, 4, 8, 16 and 32 µg/ml, OD 600 nm every 30 minutes for 24 hours, 37 °C
Molecule,"MIC (μg/ml) >E. coli ([1]; K12, 24 h)","MIC (μg/ml) S. aureus ([2]; 68 (HER1049, 24 h))","MIC (μg/ml) >E. coli [1, 6]","MIC (μg/ml) S. aureus [2, 7]",also measured
CC[C@H](C)[C@H](NC(=O)[C@H](CCCNC(=N)N)NC(=O)[C@H](CCCNC(=N)N)NC(=O)[C@H](CC(C)C)NC(=O)[C@H](CCCCN)NC(=O)[C@H](CCCCN)NC(=O)[C@H](Cc1c[nH]c2ccccc12)NC(=O)[C@H](CCCCN)NC(=O)[C@H](CCCCN)NC(=O)[C@H](Cc1c[nH]c2ccccc12)NC(=O)[C@@H](N)Cc1ccc(O)cc1)C(=O)N[C@@H](Cc1ccccc1)C(=O)N[C@@H](CCSC)C(=O)N[C@@H](CC(C)C)C(=O)N[C@H](C(N)=O)C(C)C [Peptide 1] (H-YWKKWKKLRRIFMLV-NH2; N-terminus assumed),2 µg/mL,8 µg/mL,–,–,–
CC[C@H](C)[C@H](NC(=O)[C@H](CCCNC(=N)N)NC(=O)[C@H](CCCNC(=N)N)NC(=O)[C@H](CC(C)C)NC(=O)[C@H](CCCCN)NC(=O)[C@H](CCCCN)NC(=O)[C@H](Cc1c[nH]c2ccccc12)NC(=O)[C@H](CCCNC(=N)N)NC(=O)[C@H](CCCCN)NC(=O)[C@H](Cc1c[nH]c2ccccc12)NC(=O)[C@@H](N)Cc1c[nH]c2ccccc12)C(=O)N[C@@H](Cc1ccccc1)C(=O)N[C@@H](CC(C)C)C(=O)N[C@@H](CCSC)C(=O)N[C@@H](CC(C)C)C(N)=O [Peptide 2] (H-WWKRWKKLRRIFLML-NH2; N-terminus assumed),4 µg/mL,4 µg/mL,–,–,–
CC[C@H](C)[C@H](NC(=O)[C@H](CCCNC(=N)N)NC(=O)[C@H](CCCCN)NC(=O)[C@H](Cc1c[nH]c2ccccc12)NC(=O)[C@H](CCCNC(=N)N)NC(=O)[C@H](CCCCN)NC(=O)[C@H](Cc1c[nH]c2ccccc12)NC(=O)[C@@H](N)Cc1c[nH]c2ccccc12)C(=O)N[C@@H](CCCNC(=N)N)C(=O)N[C@@H](CCCNC(=N)N)C(=O)N[C@H](C(=O)N[C@@H](Cc1ccccc1)C(=O)N[C@@H](CCSC)C(=O)N[C@@H](CCSC)C(=O)N[C@H](C(N)=O)C(C)C)[C@@H](C)CC [Peptide 3] (H-WWKRWKRIRRIFMMV-NH2; N-terminus assumed),4 µg/mL,8 µg/mL,–,–,–
CC(C)C[C@H](NC(=O)[C@H](CCCNC(=N)N)NC(=O)[C@H](CCCCN)NC(=O)[C@H](Cc1c[nH]c2ccccc12)NC(=O)[C@H](Cc1c[nH]c2ccccc12)NC(=O)[C@H](CCCCN)NC(=O)[C@H](Cc1c[nH]c2ccccc12)NC(=O)[C@@H](N)Cc1c[nH]c2ccccc12)C(=O)N[C@@H](CCCNC(=N)N)C(=O)N[C@@H](CCCNC(=N)N)C(=O)N[C@@H](CC(C)C)C(=O)N[C@@H](Cc1ccccc1)C(=O)N[C@@H](CC(C)C)C(=O)N[C@@H](CC(C)C)C(=O)N[C@H](C(N)=O)C(C)C [Peptide 4] (H-WWKWWKRLRRLFLLV-NH2; N-terminus assumed),16 µg/mL,16 µg/mL,–,–,water solubility [3]: poor
"CC[C@H](C)[C@H](NC(=O)CNC(=O)[C@H](CCCCN)NC(=O)[C@H](Cc1ccccc1)NC(=O)[C@H](CC(C)C)NC(=O)[C@H](CCCCN)NC(=O)[C@H](Cc1c[nH]c2ccccc12)NC(=O)[C@@H](N)CCCCN)C(=O)N[C@@H](CCCNC(=N)N)C(=O)N[C@@H](C)C(=O)N[C@H](C(=O)N[C@@H](CC(C)C)C(=O)N[C@@H](CCCCN)C(=O)N[C@H](C(=O)N[C@@H](CC(C)C)C(N)=O)C(C)C)C(C)C [Peptide 5, reference compound] (H-KWKLFKGIRAVLKVL-NH2; N-terminus assumed)",–,–,4 µg/mL,8 µg/mL,–
"CC[C@H](C)[C@H](NC(=O)[C@H](CC(C)C)NC(=O)[C@H](CCCNC(=N)N)NC(=O)[C@H](Cc1c[nH]c2ccccc12)NC(=O)CN)C(=O)N[C@@H](CCCCN)C(=O)N[C@@H](CCCCN)C(=O)N[C@H](C(=O)N[C@@H](CC(C)C)C(=O)N[C@@H](CCCNC(=N)N)C(=O)N[C@H](C(=O)N[C@@H](Cc1ccccc1)C(=O)N[C@@H](CCCCN)C(=O)NCC(=O)N[C@@H](CC(C)C)C(N)=O)C(C)C)[C@@H](C)CC [Peptide 6, reference compound] (H-GWRLIKKILRVFKGL-NH2; N-terminus assumed)",–,–,4 µg/mL,4 µg/mL,antibacterial activity (logarithm of bactericidal potency) [4]: 0.824
"CC[C@H](C)[C@H](NC(=O)CNC(=O)[C@H](CC(C)C)NC(=O)[C@H](Cc1ccccc1)NC(=O)[C@H](CC(C)C)NC(=O)[C@H](CCCCN)NC(=O)[C@H](Cc1c[nH]c2ccccc12)NC(=O)[C@@H](N)CCCCN)C(=O)N[C@@H](CC(C)C)C(=O)N[C@@H](C)C(=O)N[C@H](C(=O)N[C@@H](CC(C)C)C(=O)N[C@@H](CCCCN)C(=O)N[C@H](C(=O)N[C@@H](CC(C)C)C(N)=O)C(C)C)C(C)C [Peptide 7, reference compound] (H-KWKLFLGILAVLKVL-NH2; N-terminus assumed)",–,–,> 32 µg/mL,> 32 µg/mL,–
VEWAK,–,–,–,–,bioactivity (logarithm of the relative activity index compared to the peptide VESSK) [5]: 2.73
